Source: patent US20250312468A1, “ANTI-PROTAC ANTIBODIES AND COMPLEXES” (Merck Patent GmbH, priority 2021, published 2025)

What was measured:
[1] = biological target: CD33xMIC7; experiment: SPR affinity of VHH clone (antibody fusion) to PROTACs; details: CD33xMIC7 immobilized, 25° C., read-out: KD [M] for antibody binding to PROTAC
Protocol: (§1) The kinetic and affinity parameters of protein-PROTAC interactions were evaluated by SPR. The anti-PROTAC VHH clones MIC5-MIC14 were immobilized as CD33 or CLL1 antibody fusion (the manufacturing of fusion proteins and the used linker is described in chapter 7.9) onto a CM5 (Series S) sensor chip via the standard amine coupling procedure, at 25° C. Prior to immobilization, the carboxymethylated surface of the chip was activated with 400 mM 1-ethyl-3-(3-dimethylaminopropyl)-carbodiimide and 100 mM N-hydroxysuccinimide for 7 min. Hit anti-PROTAC VHH as CD33 and CLL1 antibody fusions were diluted to 10 μg/ml in 10 mM Acetate at pH 4.5 and immobilized on the activated surface chip for 7 min, in order to reach 3,000 to 6,000 response units (RU). The remaining activated carboxymethylated groups were blocked with a 10 min injection of 1 M ethanolamine pH 8. HBS-N, which consists of 10 mM HEPES pH 7.4 and 150 mM NaCl, was used as the background buffer during immobilization. PROTACs were prediluted in DMSO, diluted 1:50 in running buffer (12 mM phosphate pH 7.4, 137 mM NaCl, 2.7 mM KCl, 0.05% Tween20, 2% DMSO) and injected at ten different concentrations using two-fold dilution series, from 1 μM to 0.002 μM. A DMSO solvent correction (1%-3%) was performed to account for variations in bulk signal and to achieve high-quality data. Interaction analysis cycles consisted of a 300 sec sample injection (30 μL/min; association phase) followed by 900 sec of buffer flow (dissociation phase).
(§2) All sensorgrams were processed by first subtracting the binding response recorded from the control surface (reference flow-channel), followed by subtracting of the buffer blank injection from the active flow-channel (target protein immobilized). All datasets were fit to a simple 1:1 Langmuir interaction model to determine the kinetic rate constants. Experiments were performed on a Biacore 8k+ (Cytiva, Uppsala, Sweden) at 25° C. and the interactions were evaluated using the provided Biacore Insight Evaluation software.

[2] = biological target: CLL1xMIC7; experiment: as above; details: CLL1xMIC7 immobilized, 25° C., read-out: KD [M] for antibody binding to PROTAC
Protocol: as §1, §2

[3] = tested on: A431; experiment: CellTiter-Glo cell viability assay (VHH-based PAX); details: A431, PROTAC alone
Protocol: (§3) Several cell viability experiments were performed following the procedure described below: Cells were seeded in different media into white cell culture-treated flat and clear bottom multiwell plates followed by overnight incubation in a humid chamber at 37° C. and 5% CO2. Complexation was performed as described in chapter 7.4.
(§4) The solutions were added to the cells based on the antibody concentration using nanodrop dispension using a Tecan D300e Digital Dispenser and all wells were normalized to the same volume using 0.3% TW20 in PBS pH 7.4 and DMSO to a final solvent concentration of 0.05% DMSO and 0.003% TW20. Incubation was performed at 37° C. at 5% or 10% CO2 dependent on the medium. The assay was developed after 3 days if not otherwise stated using CellTiter-Glo Luminescent Cell Viability Assay as described in the manufacturer's protocol. In brief, the plates were equilibrated to room temperature for 30 minutes. 100 mL CellTiter-Glo Buffer were added to the CellTiter-Glo Substrate Flask and mixed well. 30 μL of the reagent was transferred to each well. After incubation for 3 minutes at room temperature while shaking at 550 rpm, the plate was incubated for another 10 minutes at room temperature. The luminescence was read on an Envision reader from Perkin Elmer. Solvent alone and Bortezomib (1.0E-05 M) served as high control (100% viability) and low control (0% viability), respectively. Raw data were converted into percent cell viability relative to the high and low control, which were set to 100% and 0%, respectively. […] The concentration corresponds to the concentration of PROTACs in the PAX.

[4] = tested on: A549; experiment: CellTiter-Glo cell viability assay (VHH-based PAX); details: A549, PROTAC alone
Protocol: as §3, §4

[5] = tested on: HCC827; experiment: CellTiter-Glo cell viability assay (VHH-based PAX); details: HCC827, PROTAC alone
Protocol: as §3, §4

[6] = tested on: HEPG2 cells; experiment: CellTiter-Glo cell viability assay (VHH-based PAX); details: HEPG2, PROTAC alone
Protocol: as §3, §4

[7] = tested on: MCF7; experiment: CellTiter-Glo cell viability assay (VHH-based PAX); details: MCF7, PROTAC alone
Protocol: as §3, §4

[8] = tested on: MDAMB468 cells; experiment: CellTiter-Glo cell viability assay (VHH-based PAX); details: MDAMB468, PROTAC alone
Protocol: as §3, §4

[9] = tested on: NCIN87; experiment: CellTiter-Glo cell viability assay (VHH-based PAX); details: NCIN87, PROTAC alone
Protocol: as §3, §4

[10] = tested on: OVCAR3; experiment: CellTiter-Glo cell viability assay (VHH-based PAX); details: OVCAR3, PROTAC alone
Protocol: as §3, §4

[11] = tested on: SKBR3; experiment: CellTiter-Glo cell viability assay (VHH-based PAX); details: SKBR3, PROTAC alone
Protocol: as §3, §4

[12] = tested on: SKOV3; experiment: CellTiter-Glo cell viability assay (VHH-based PAX); details: SKOV3, PROTAC alone
Protocol: as §3, §4

Kd [1]: 3.8e-09 M | Kd [2]: < 1e-10 M | IC50 [3]: 3 nM | IC50 [4]: 17 nM | IC50 [5]: 6.5 nM | IC50 [6]: 14 nM | IC50 [7]: 1.5 nM | IC50 [8]: 7.1 nM | IC50 [10]: 2.8 nM | IC50 [11]: 3.6 nM | IC50 [12]: 2.4 nM
Structure (SMILES): Cc1ncsc1-c1ccc(CNC(=O)[C@@H]2C[C@@H](O)CN2C(=O)[C@@H](NC(=O)COCC(C)(COCCOCCOCCNC(=O)C[C@@H]2N=C(c3ccc(Cl)cc3)c3c(sc(C)c3C)-n3c(C)nnc32)COCCOCCOCCNC(=O)C[C@@H]2N=C(c3ccc(Cl)cc3)c3c(sc(C)c3C)-n3c(C)nnc32)C(C)(C)C)cc1 [SIM1]
IC50 [9]: 4 nM
